{
  "source": "paper PMC7648750",
  "about": "“In vitro and in vivo BNCT investigations using a carborane containing sulfonamide targeting CAIX epitopes on malignant pleural mesothelioma and breast cancer cells” (Scientific Reports, 2020)",
  "key": {"MCF7 cells": {"system": "MCF7 cells", "test": "MTT cell vitality assay", "assay_type": "cell-based, human", "settings": "MCF7, 24 h, normoxia, Fig. 3", "protocol": "(§1) The MTT assay is based on the reduction in the mitochondria of metabolically active cells by succinate dehydrogenase obtaining a precipitation of purple formazan crystal. The assay was carried out using the same protocol reported by Azzi et al[42]. Briefly, AB22, ZL34 and MCF7 cells were seeded at a density of 7 × 10^3, 5 × 10^3 and 1 × 10^4 cells per well, respectively, in a 96-well microtiter plate. After 24 h at 37 °C and 5% CO2, they were incubated with increasing concentration of CA-SF or AZ for 24 h in a condition of normoxia at 37 °C and 5% CO2 by adding stock solutions in dimethyl sulfoxide (DMSO). In all the conditions the concentration of DMSO during the cell incubation was maintained under 0.25% (v/v) in cell medium. After the incubation, the medium was removed and each well was incubated with thiazolyl blue tetrazolium bromide (Sigma) dissolved in the medium at a concentration of 0.45 mg/mL for 4 h at 37 °C and 5% CO2. Then, after medium elimination, 150 µL of DMSO were added into each well to solubilise the formazan salt crystals produced by the metabolism of live cells and the microplate was incubated at room temperature (RT) for 30 min. Finally, absorbance was measured at 570 nm using an iMark microplate reader (Biorad). Cell vitality was reported as the percentage of […] cells observed in the treated samples relative to that observed in the non-treated control cells."}, "ZL34 cells": {"system": "ZL34 cells", "test": "MTT cell vitality assay", "assay_type": "cell-based, human", "settings": "ZL34, 24 h, normoxia, Fig. 3", "protocol": "as §1"}, "AB22 cells": {"system": "AB22 cells", "test": "MTT cell vitality assay", "assay_type": "cell-based, mouse", "settings": "AB22, 24 h, normoxia, Fig. 3", "protocol": "as §1"}, "[1]": {"settings": "clinical applications; no reference given; cited from earlier work"}},
  "data": [
    {"compound": "CC(=O)Nc1nnc(S(N)(=O)=O)s1", "note": "[AZ, 5-acetamido-1,3,4-thiadiazole-2-sulfonamide, reference compound]", "values": [
      {"measurement": "percentage of viable cells with increasing concentration (MTT)", "setting": "MCF7 cells", "value": "negligible"},
      {"measurement": "percentage of viable cells with increasing concentration (MTT)", "setting": "ZL34 cells", "value": "negligible"},
      {"measurement": "percentage of viable cells with increasing concentration (MTT)", "setting": "AB22 cells", "value": "negligible"}
    ]},
    {"compound": "N[C@@H](Cc1ccc(B(O)O)cc1)C(=O)O", "note": "[BPA, L-para-boronphenylalanine]", "values": [
      {"measurement": "boron concentration ratio between tumour and normal tissues", "setting": "[1]", "value": "3–5"}
    ]},
    {"compound": "sodium mercaptoundecaidro-closo-dodecaborate [BSH]", "values": [
      {"measurement": "boron concentration ratio between tumour and normal tissues", "setting": "[1]", "value": "3–5"}
    ]}
  ]
}
